Test results reported in ChEMBL document CHEMBL5356933, “Dual functional therapeutics: mitigating bacterial infection and associated inflammation” (RSC Med Chem, 2023).
In brackets after ≈: the same amount, converted by molar mass. Residues, ends and D or L forms follow the SMILES beside them.

Legend:
Escherichia coli [1] = assay: Antibacterial activity against Escherichia coli ATCC 25922 assessed as inhibition of bacterial growth incubated for 16 to 18 hrs by broth microdilution method; format: functional; conditions: time 16-18 hrs
[2] = Hemolytic activity in human RBC assessed as hemolysis up to 100 microg/ml measured after 1 hr; format: toxicity, cell-based, Erythrocyte; conditions: red blood cells (erythrocytes), dose < 100 µg/ml
RAW264.7 [3] = assay: Anti-inflammatory activity against mouse RAW264.7 cells assessed as inhibition of LPS-induced NO production at 10 uM incubated for 24 hrs by Griess reagent based analysis relative to control; format: functional; parameters: scale not given: the % may be the effect or the level left
RAW264.7 [4] = assay: Antiinflammatory activity against LPS-stimulated mouse RAW264.7 cells assessed as inhibition of TNFalpha production at 10 uM preincubated for 27 hrs followed by LPS stimulation and measured after 12 hrs by ELISA analysis relative to control; format: functional; parameters: scale not given: the % may be the effect or the level left; conditions: time 39 hrs
RAW264.7 [5] = assay: Antiinflammatory activity against mouse RAW264.7 cells assessed as reduction in TNF alpha production incubated for 24 hrs by ELISA method relative to control; format: functional; parameters: scale not given: the % may be the effect or the level left
RAW264.7 [6] = assay: Antiinflammatory activity against LPS-induced mouse RAW264.7 cells assessed as reduction in IL-6 mRNA expression incubated for 24 hrs by RT-PCR analysis relative to control; format: functional; parameters: scale not given: the % may be the effect or the level left
[7] = Acute toxicity in Kunming mouse assessed as survival rate at 80 ug/kg, ip administered once daily for 14 days relative to control; format: organism-based; conditions: in vivo, 0.08 mg/kg, time 14 day, read-out: Activity
RAW264.7 [8] = assay: Anti-inflammatory activity against mouse RAW264.7 cells assessed as reduction in LPS-induced TNFalpha production relative to control; format: functional; parameters: scale not given: the % may be the effect or the level left
RAW264.7 [9] = assay: Anti-inflammatory activity against mouse RAW264.7 cells assessed as reduction in LPS-induced IL-6 mRNA production relative to control; format: functional; parameters: scale not given: the % may be the effect or the level left
[10] = Acute toxicity in Kunming mouse assessed as survival rate at 40 ug/kg, ip administered once daily for 14 days relative to control; format: organism-based; conditions: in vivo, 0.04 mg/kg, time 14 day, read-out: Activity
[11] = Acute toxicity in Kunming mouse assessed as survival rate at 160 ug/kg, ip administered once daily for 14 days relative to control; format: organism-based; conditions: in vivo, 0.16 mg/kg, time 14 day, read-out: Activity
Streptococcus pneumoniae = assay: Antibacterial activity against Streptococcus pneumoniae ATCC 49619 assessed as reduction in bacterial growth; format: functional
Pseudomonas aeruginosa = assay: Antibacterial activity against multi-drug resistant Pseudomonas aeruginosa assessed as reduction in bacterial growth by broth microdilution method; format: functional
RAW264.7 [12] = assay: Immunosuppressive activity in LPS-treated mouse RAW264.7 cells assessed as inhibition of MCP-1 level at 20 ug/ml incubated for 24 hrs by ELISA analysis relative to control; format: functional; parameters: scale not given: the % may be the effect or the level left; conditions: dose 20 µg/ml
RAW264.7 [13] = assay: Anti-inflammatory activity against mouse RAW264.7 cells assessed as inhibition of LPS-induced NO production at 20 ug/ml relative to control; format: functional; parameters: scale not given: the % may be the effect or the level left; conditions: dose 20 µg/ml
Escherichia coli [14] = assay: Antibacterial activity against Escherichia coli ATCC 25922 assessed as reduction in bacterial growth by broth microdilution method; format: functional
RAW264.7 [15] = assay: Antiinflammatory activity in LPS-induced mouse RAW264.7 cells assessed as reduction in TNF alpha level at 20 ug/ml measured after 72 hrs by ELISA assay relative to control; format: functional; parameters: scale not given: the % may be the effect or the level left; conditions: dose 20 µg/ml
RAW264.7 [16] = assay: Anti-inflammatory activity in mouse RAW264.7 cells assessed as reduction in LPS-induced IL-6 mRNA expression at 20 ug/ml incubated for 24 hrs by qPCR analysis relative to control; format: functional; parameters: scale not given: the % may be the effect or the level left; conditions: dose 20 µg/ml
Escherichia coli [17] = assay: Antibacterial activity against Escherichia coli assessed as reduction in bacterial growth by broth micro-dilution method; format: functional
Staphylococcus aureus [18] = assay: Antibacterial activity against Staphylococcus aureus ATCC 33591 assessed as reduction in bacterial growth; format: functional
[19] = test system: Staphylococcus epidermidis; assay: Antibacterial activity against Staphylococcus epidermidis assessed as reduction in microbial growth incubated for 24 hrs by broth micro-dilution method; format: functional
Acinetobacter baumannii = assay: Antibacterial activity against Acinetobacter baumannii ATCC 19606 assessed as bacterial growth inhibition at 32 ug/ml measured after 16 hrs by broth microdilution method; format: functional; conditions: dose 32 µg/ml
J774.A1 [20] = assay: Antiinflammatory activity against mouse J774.A1 cells assessed as inhibition of LPS-stimulated TNFalpha release measured at 10 uM after 30 mins by ELISA relative to control; format: functional; parameters: scale not given: the % may be the effect or the level left; conditions: 0.5 h
J774.A1 [21] = assay: Antiinflammatory activity in mouse J774.A1 cells assessed as decrease in LPS-induced IL-6 secretion at 20 uM preincubated for 30 mins followed by LPS stimulation and measured after 24 hrs by ELISA; format: functional; parameters: scale not given: the % may be the effect or the level left; conditions: time 1470 min, 24.5 h
Escherichia coli [22] = assay: Antimicrobial activity against Escherichia coli ATCC 25922 assessed as reduction in microbial growth incubated for 24 hrs by CLSI based broth microdilution method; format: functional
Staphylococcus aureus [23] = assay: Antibacterial activity against methicillin-resistant Staphylococcus aureus ATCC 33591 assessed as reduction in bacterial growth incubated for 24 hrs by agar plate method; format: functional
Enterococcus faecium = assay: Antibacterial activity against Enterococcus faecium clinical isolate assessed as reduction in cell growth incubated for 48 hrs by broth micro-dilution method; format: functional
Staphylococcus aureus [24] = assay: Antibacterial activity against Staphylococcus aureus clinical isolate assessed as reduction in cell growth incubated for 48 hrs by broth micro-dilution method; format: functional
Klebsiella pneumoniae = assay: Antibacterial activity against Klebsiella pneumoniae clinical isolate assessed as reduction in cell growth incubated for 48 hrs by broth micro-dilution method; format: functional

SMILES: CCOC(=O)[C@H](Cc1ccccc1)NC(=O)C[N+](C)(C)CCCCCCCCCCCC[N+](C)(C)CC(=O)N[C@H](Cc1ccccc1)C(=O)OCC
- MIC (Escherichia coli [1]): 0.9 µg/mL
- HC50 at 1 h [2]: 758 µg/mL

SMILES: CC(C)C[C@H](NC(=O)[C@H](Cc1c[nH]c2ccccc12)NC(=O)[C@H](CCCCN)NC(=O)[C@H](CCCCN)NC(=O)[C@H](Cc1c[nH]c2ccccc12)NC(=O)[C@H](CCCCN)NC(=O)[C@H](CCCCN)NC(=O)[C@H](Cc1c[nH]c2ccccc12)NC(=O)[C@H](CC(C)C)NC(=O)[C@@H](N)CCCCN)C(=O)N[C@@H](CCCCN)C(N)=O (H-KLWKKWKKWLK-NH2)
- Activity (RAW264.7 [3]): 50%

SMILES: CC[C@H](C)[C@H](NC(=O)[C@H](CCCNC(=N)N)NC(=O)[C@H](CCCCN)NC(=O)[C@@H](NC(=O)[C@@H](NC(=O)[C@H](CCCNC(=N)N)NC(=O)[C@@H](N)CCCCN)[C@@H](C)CC)C(C)C)C(=O)N[C@@H](CCCCN)C(=O)N[C@@H](CCCCN)C(=O)N[C@@H](Cc1c[nH]c2ccccc12)C(=O)N[C@@H](CC(C)C)C(=O)N[C@@H](CCCNC(=N)N)C(N)=O (H-KRIVKRIKKWLR-NH2)
- Activity (RAW264.7 [4]): 74.2%

SMILES: CC(C)C[C@H](NC(=O)CNC(=O)[C@H](Cc1ccccc1)NC(=O)[C@H](CCCNC(=N)N)NC(=O)[C@H](CCCNC(=N)N)NC(=O)CNC(=O)[C@H](Cc1cnc[nH]1)NC(=O)[C@H](CCCNC(=N)N)NC(=O)CNC(=O)[C@@H](NC(=O)[C@H](C)NC(=O)[C@@H](N)CO)C(C)C)C(=O)N[C@@H](CCCNC(=N)N)C(=O)N[C@@H](CCCCN)C(=O)N[C@@H](Cc1cnc[nH]1)C(=O)N[C@@H](CCCNC(=N)N)C(=O)N[C@@H](CCCCN)C(=O)N[C@@H](Cc1cnc[nH]1)C(=O)O (H-SAVGRHGRRFGLRKHRKH-OH)
- Activity (RAW264.7 [5]): 75%
- Activity (RAW264.7 [6]): 46%
- survival at 336 h [7]: 70%
- Activity (RAW264.7 [8]): >50%
- Activity (RAW264.7 [9]): >50%
- survival at 336 h [10]: 10%
- survival at 336 h [11]: 75%

SMILES: CCCCCCCCCCN(Cc1cccc2ccccc12)C(=O)[C@@H](N)CCCCN
- MIC (Streptococcus pneumoniae): 4.1 µM (≈ 1.75 µg/mL)

SMILES: CC[C@H](C)[C@H](NC(=O)[C@H](Cc1cnc[nH]1)NC(=O)[C@H](CO)NC(=O)[C@@H](NC(=O)[C@@H](NC(=O)[C@@H](NC(=O)[C@@H](NC(=O)[C@H](CCCNC(=N)N)NC(=O)[C@H](CC(C)C)NC(=O)[C@H](CCCCN)NC(=O)[C@H](CCC(=O)O)NC(=O)[C@H](CCCCN)NC(=O)[C@H](CC(C)C)NC(=O)[C@H](CCCCN)NC(=O)[C@H](CS)NC(=O)[C@H](CC(C)C)NC(=O)[C@H](Cc1ccccc1)NC(=O)[C@H](CC(N)=O)NC(=O)[C@H](CS)NC(=O)[C@@H](N)CCCCN)[C@@H](C)O)C(C)C)[C@@H](C)CC)[C@@H](C)O)C(=O)N[C@@H](CC(=O)O)C(=O)N[C@@H](CCCCN)C(=O)N[C@H](C(=O)N[C@@H](CC(C)C)C(=O)N[C@@H](CCCNC(=N)N)C(=O)N1CCC[C@H]1C(=O)N[C@@H](CCC(N)=O)C(=O)NCC(N)=O)C(C)C (H-KCNFLCKLKEKLRTVITSHIDKVLRPQG-NH2)
- MIC (Pseudomonas aeruginosa): 37.5 µg/mL (≈ 11.5 µM)
- Activity (RAW264.7 [12]): 68%
- Activity (RAW264.7 [13]): 70%
- MIC (Escherichia coli [14]): 4.69 µg/mL (≈ 1.44 µM)
- Activity (RAW264.7 [15]): 60%
- Activity (RAW264.7 [16]): 86%

SMILES: NCCCOc1cc(OCCCN)cc(-c2cc(-c3ccccc3)cc(-c3cc(OCCCN)cc(OCCCN)c3)c2)c1
- MIC (Escherichia coli [17]): 3.13 µg/mL (≈ 5.23 µM)

SMILES: CCCCCCCCCCCCCCCC(=O)N(CCNC(=O)CN1C[C@H](Cc2ccccc2)NC(=O)[C@H](CCCCN)N(C(=O)CCc2ccccc2)CCNC(=O)[C@H](CCCCN)N(C(=O)CCc2ccccc2)CCNC(=O)[C@H](CCCCN)N(C(=O)CCc2ccccc2)CCNC(=O)CCC1=O)[C@@H](CCCCN)C(N)=O
- MIC (Staphylococcus aureus [18]): 2.4 µM (≈ 3.86 µg/mL)
- MIC [19]: 0.6 µM

SMILES: CC[C@H](C)[C@@H](NC(=O)[C@@H](CCCNC(=N)N)NC(=O)[C@@H](CCCNC(=N)N)NC(=O)[C@@H](CC(C)C)NC(=O)[C@@H](Cc1c[nH]c2ccccc12)NC(=O)[C@@H](C)NC(=O)[C@@H](CCCCN)NC(=O)[C@H](NC(=O)[C@@H](CCCNC(=N)N)NC(=O)[C@@H](CCCNC(=N)N)NC(=O)[C@@H](CC(C)C)NC(=O)[C@H](N)Cc1c[nH]c2ccccc12)[C@@H](C)CC)C(=O)N[C@H](CCCCN)C(=O)N[C@H](C)C(N)=O
- MIC (Acinetobacter baumannii): 2 µM (≈ 3.73 µg/mL)
- Activity (J774.A1 [20]): 64.7%
- Activity (J774.A1 [21]): 96.4%

SMILES: CCCCCCCCCCCCCCCC(=O)N(CC(N)=O)C[C@H](CCCCN)NC(=O)N1C[C@H](Cc2ccccc2)NC(=O)CN(C(=O)CCCN)C[C@H](Cc2ccccc2)NC(=O)CN(C(=O)CCCN)C[C@H](Cc2ccccc2)NC(=O)CN(C(=O)CCCN)C[C@H](Cc2ccccc2)NC(=O)CCC1=O
- MIC (Escherichia coli [22]): 1 µM

SMILES: CCCCCCN(Cc1ccc(-c2ccc(CN(CCCCCC)C(=O)[C@@H](N)CCCCN)cc2)cc1)C(=O)[C@@H](N)CCCCN
- MIC (Staphylococcus aureus [23]): 3.1 µg/mL (≈ 4.87 µM)

SMILES: CC[C@H](C)[C@H](NC(=O)[C@H](Cc1c[nH]c2ccccc12)NC(=O)[C@H](CCCNC(=N)N)NC(=O)[C@H](CCC(N)=O)NC(=O)[C@@H](NC(=O)[C@H](Cc1c[nH]c2ccccc12)NC(=O)[C@H](CCCNC(=N)N)NC(=O)[C@@H](N)CCCNC(=N)N)C(C)C)C(=O)N[C@@H](CCCNC(=N)N)C(=O)N[C@@H](CCCNC(=N)N)C(=O)N[C@@H](Cc1c[nH]c2ccccc12)C(=O)N[C@@H](CCCNC(=N)N)C(=O)N[C@@H](CCCCN)C(=O)N[C@@H](Cc1c[nH]c2ccccc12)C(=O)N[C@H](C(=O)O)C(C)C (H-RRWVQRWIRRWRKWV-OH)
- MIC (Enterococcus faecium): 5 µM (≈ 11.3 µg/mL)
- MIC (Staphylococcus aureus [24]): 5 µM (≈ 11.3 µg/mL)
- MIC (Klebsiella pneumoniae): 5 µM (≈ 11.3 µg/mL)
